One series has as its target rP2Y1-GFP receptor. Particulars: read-out: EC50 at P2Y1R (rP2Y1-GFP receptor); cited from earlier work.
The next series concerns the target tP2Y1 receptor (Meleagris gallopavo, UniProt P49652). Kind of series: [Ca2+]i elevation in 1321N1 astrocytoma cells expressing turkey P2Y1 receptor. Type of series: cell-based. Particulars: 1321N1 astrocytoma cells stably transfected with turkey P2Y1 receptor, fura-2, 37 °C; for EC50: read-out: EC50 for [Ca2+]i elevation, P2Y1.
In a further series the target is T1, human e-NPP1 (Homo sapiens, UniProt P22413).
T1 sequence (P22413 1-925): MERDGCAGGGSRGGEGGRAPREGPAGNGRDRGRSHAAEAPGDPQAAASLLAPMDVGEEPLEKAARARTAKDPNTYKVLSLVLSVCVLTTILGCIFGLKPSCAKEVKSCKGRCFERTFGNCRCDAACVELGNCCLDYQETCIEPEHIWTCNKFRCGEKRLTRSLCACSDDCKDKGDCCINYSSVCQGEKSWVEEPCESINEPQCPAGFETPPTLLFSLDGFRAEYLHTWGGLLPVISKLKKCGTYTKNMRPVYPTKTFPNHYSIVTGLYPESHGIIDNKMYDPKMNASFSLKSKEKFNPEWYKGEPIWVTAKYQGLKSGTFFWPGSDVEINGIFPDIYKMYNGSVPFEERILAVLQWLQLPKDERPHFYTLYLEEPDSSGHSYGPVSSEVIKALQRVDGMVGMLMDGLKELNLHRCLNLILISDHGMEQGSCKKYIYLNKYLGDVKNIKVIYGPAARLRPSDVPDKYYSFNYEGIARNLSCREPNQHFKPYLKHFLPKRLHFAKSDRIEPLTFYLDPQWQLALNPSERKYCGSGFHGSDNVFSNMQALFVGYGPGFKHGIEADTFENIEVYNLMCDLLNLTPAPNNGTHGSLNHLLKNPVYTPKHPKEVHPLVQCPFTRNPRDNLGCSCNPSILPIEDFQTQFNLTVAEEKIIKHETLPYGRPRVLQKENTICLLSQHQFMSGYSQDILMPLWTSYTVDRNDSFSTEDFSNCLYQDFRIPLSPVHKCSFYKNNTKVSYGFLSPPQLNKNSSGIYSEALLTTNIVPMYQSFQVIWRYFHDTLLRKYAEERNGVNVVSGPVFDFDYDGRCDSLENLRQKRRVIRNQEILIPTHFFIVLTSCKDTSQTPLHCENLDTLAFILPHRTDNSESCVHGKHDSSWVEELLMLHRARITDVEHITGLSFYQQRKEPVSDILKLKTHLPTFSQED
Kind of series: Hydrolysis of dinucleotides by human e-NPP1. Type of series: in vitro ADME. Particulars: over 20 min at 37 °C, pH 8.5.

The next series deals with P2Y2R. Particulars: read-out: EC50 at P2Y2R; cited from earlier work.

In general, EC50 refers to the concentration giving half of the maximal effect.

Sequence of tP2Y1 receptor (P49652 whole entry): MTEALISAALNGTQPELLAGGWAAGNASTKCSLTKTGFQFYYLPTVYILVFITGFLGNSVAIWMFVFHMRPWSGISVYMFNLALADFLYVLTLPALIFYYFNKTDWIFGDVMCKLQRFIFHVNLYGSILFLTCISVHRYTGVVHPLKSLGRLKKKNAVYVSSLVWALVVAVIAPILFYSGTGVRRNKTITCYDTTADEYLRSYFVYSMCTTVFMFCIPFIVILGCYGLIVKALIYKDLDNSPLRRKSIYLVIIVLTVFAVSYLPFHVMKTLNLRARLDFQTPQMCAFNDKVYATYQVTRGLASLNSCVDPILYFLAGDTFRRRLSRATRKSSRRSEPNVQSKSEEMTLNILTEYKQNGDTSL

On to `CSc1nc(N)c2ncn([C@@H]3O[C@H](COP(=O)(O)OP(=O)(O)O)[C@@H](O)[C@H]3O)c2n1` [Analogue 2-SMe-ADP], for which, on rP2Y1-GFP receptor, the EC50 is 100 nM.
`[BH3-][P+](O)(OP(=O)(O)OC[C@H]1O[C@@H](n2ccc(=O)[nH]c2=O)[C@H](O)[C@@H]1O)OP(=O)(O)OP(=O)(O)OC[C@H]1O[C@@H](n2ccc(=O)[nH]c2=O)[C@H](O)[C@@H]1O` (some centres unmarked) [Analogue 7A, P^2-Borano-P^1,P^4-di(5′-uridine)tetraphosphate]: the EC50 on tP2Y1 receptor is more than 100000 nM.
Take `[BH3-][P+](O)(OP(=O)(O)OC[C@H]1O[C@@H](n2cnc3c(N)ncnc32)[C@H](O)[C@@H]1O)OP(=O)(O)OP(=O)(O)OC[C@H]1O[C@@H](n2ccc(=O)[nH]c2=O)[C@H](O)[C@@H]1O` (some centres unmarked) [Analogue 8, P^3-Borano-P^1,P^4-5′-uridine-5′-adenosinetetraphosphate]: the “EC50 for [Ca2+]i elevation, P2Y1” value at tP2Y1 receptor (listed as Ap4(β-B)U) was “inactive”.
For `[BH3-][P+](O)(OP(=O)(O)OC[C@H]1O[C@@H](n2cnc3c(N)ncnc32)[C@H](O)[C@@H]1O)OP(=O)(O)OP(=O)(O)OC[C@H]1O[C@@H](n2ccc(=O)[nH]c2=O)[C@H](O)[C@@H]1O` (some centres unmarked) [Analogue 8A, P^3-Borano-P^1,P^4-5′-uridine-5′-adenosinetetraphosphate], the EC50 on tP2Y1 receptor is more than 100000 nM.
With `BP(=O)(OC[C@H]1O[C@@H](n2cnc3c(N)ncnc32)[C@H](O)[C@@H]1O)OP(=O)(O)OP(=O)(O)OC[C@H]1O[C@@H](n2cnc3c(N)ncnc32)[C@H](O)[C@@H]1O` (some centres unmarked) [Analogue 10A, P^1-Borano-P^1,P^3-5′-diadenosinetriphosphate], the “percentage of the compound hydrolyzed by human e-NPP1” value at human e-NPP1 was “completely resistant to hydrolysis”.
The same measure, in the same setting: the value for `BP(=O)(OC[C@H]1O[C@@H](n2ccc(=O)[nH]c2=O)[C@H](O)[C@@H]1O)OP(=O)(O)OP(=O)(O)OC[C@H]1O[C@@H](n2ccc(=O)[nH]c2=O)[C@H](O)[C@@H]1O` (some centres unmarked) [Analogue 11A, P^1-Borano-P^1,P^3-5′-diuridinetriphosphate] was “completely resistant to hydrolysis”.
Turning to `BP(=O)(OC[C@H]1O[C@@H](n2ccc(=O)[nH]c2=O)[C@H](O)[C@@H]1O)OP(=O)(O)OP(=O)(O)OP(=O)(O)OC[C@H]1O[C@@H](n2ccc(=O)[nH]c2=O)[C@H](O)[C@@H]1O` (some centres unmarked) [Analogue 13A, P^1-Borano-P^1,P^4-5′-diuridinetetraphosphate], at tP2Y1 receptor, the EC50 is more than 100000 nM.
Consider `O=c1ccn([C@@H]2O[C@H](COP(=O)(O)OP(=O)(O)OP(=O)(O)O)[C@@H](O)[C@H]2O)c(=O)[nH]1` [UTP, uridine 5′-triphosphate], for which the EC50 in the series with P2Y2R is 15 nM.

Values taken from publication PMC4358768 (Journal of medicinal chemistry, 2011).
